Assay results published in patent US7098306B2, “Method and compositions for treating hepatocellular cancer” (The Regents of the University of California, priority 1997, dated 2006).

Legend:
[1] = tested on: AFP positive/A2.1+ hepatocellular carcinoma; test: immunization of hepatocellular carcinoma patients with the four peptides in Montanide ISA-51, peripheral T cell responses by ELISPOT and tetramer; type: in vivo, human; conditions: for in vivo T cell responses: patient AFP-A1, 100 μg each peptide, after the second and third immunization; for T cell responses by tetramer and ELISPOT: patient AFP-A2, following two immunizations
Description: The method and compositions of the present invention were used to treat several patients with AFP positive/A2.1+ hepatocellular carcinoma. Each of the patients were immunized with the four peptides hAFP137-145, residues 137–145 of SEQ ID NO:2; hAFP158-166, residues 158–166 of SEQ ID NO:2; hAFP325-334, residues 325–334 of SEQ ID NO:2; and hAFP542-550, residues 542–550 of SEQ ID NO:2, according to the this method. The peptides were emulsified in 0.5 ml of Montanide™ ISA-51 and combined for a total of 2 ml. The emulsified peptides were divided into four equal doses and each dose was administered in a separate site. Peripheral T cell responses are measured by ELISPOT and tetramer assays.
(§1) They were administered three immunizations of 100 μg each of the four peptides in Montanide™ ISA at two week intervals. Parallel in vitro PBMC cultures were also established from the first patient's blood before immunization and repetitively pulsed with each peptide. […] The presence of AFP542-specific T cells could not be assessed by tetramer as an AFP542 peptide tetramer could not be folded by the facility where these reagents are prepared.
The second patient, designated AFP-A2 was a person with a history of ethanol-induced liver cirrhosis, who was negative for both Hepatitis B and C. […] Their AFP level at presentation was 10,400 ng/ml. […] Seven months after presentation, they were then begun on a combination of the four peptides hAFP137-145, residues 137–145 of SEQ ID NO:2; hAFP158-166, residues 158–166 of SEQ ID NO:2; hAFP325-334, residues 325–334 of SEQ ID NO:2; and hAFP542-550, residues 542–550 of SEQ ID NO:2 using the protocol according to the present invention. They received two immunizations two weeks apart.

[2] = tested on: PBMC cultures; test: parallel in vitro PBMC cultures of patient AFP-A1 repetitively pulsed with each peptide; type: cell-based, human; conditions: patient AFP-A1, day 28 cultures
Description: as §1

[3] = tested on: AdVhAFP/DC immunized murine splenocytes; test: IFNg ELISPOT restimulation of AdVhAFP/DC immunized murine splenocytes with HPLC fractions eluted from HepG2 or Hep3B; type: cell-based; conditions: HPLC fractions from Hep3B elution
Description: To elute peptides, HepG2 and Hep3B cells were washed three times with PBS before being incubated with 5 ml of citrate-phosphate buffer at pH 3.2 for 1 minute. The suspension was centrifuged (800×g for 5 minutes) and a total of 500 ml of cell-free supernatant was collected for each cell line. The materials were lyophilized to dryness and stored at −20° C.
Lyophilized materials were redissolved in 30 ml of water/acetonitrile/triflouroacetic acid (W/A/TFA, 95/5/0.1 all by vol.). This solution was pumped onto an analytical reverse phase HPLC column (Keystone Scientific C18 Betasil, 250 mm×2 mm, […] particle size, 100 Å pore size) equilibrated in W/A/TFA, at a flow rate of 0.2 ml/min. The column was eluted using an increasing linear gradient of 0.1% TFA in acetonitrile (time/%acetonitrile=0/5, 5/5, 55/100, 60/100). Column eluate absorbance was monitored at 215 and 280 nm and 1 minute fractions were collected. The retention times of the synthetic peptides with amino acid sequences corresponding to the immunostimulatory peptides were obtained using the same separation gradient on a separate column.
To confirm the presence of dominant peptides in these fractions immunologically, […] of each HPLC fraction from either HepG2 or Hep3B cells was used to restimulate AdVhAFP/DC immunized murine splenocytes in an ELISPOT assay. 200–250 spots/10^6 cells were observed from fractions containing dominant peptides, where 100–130 spots/10^6 cells were observed from the other fractions, and a maximum of 50 spots/10^6 cells were observed from Hep3B fractions. This further supports the mass spectrometry identification of the dominant peptides.

Sequence	in vivo T cell responses [1]	T cell responses by tetramer and ELISPOT [1]	in vitro recognition by tetramer [2]	Immunologically Reactive Fractions (IFNg ELISPOT) Hep3B [3]
PLFQVPEPV (listed as Homo sapiens) [hAFP137-145, dominant HLA-A*0201 peptide derived from human alpha fetoprotein]	clear recognition	T cell responses were detected	clear in vitro recognition	0
GVALQTMKQ (listed as Homo sapiens) [hAFP542-550, dominant HLA-A*0201 peptide derived from human alpha fetoprotein]	clear recognition	T cell responses were detected		0
GLSPNLNRFL (listed as Homo sapiens) [hAFP325-334, dominant HLA-A*0201 peptide derived from human alpha fetoprotein]	trend towards recognition	T cell responses were detected	clear in vitro recognition	0
FMNKFIYEI (listed as Homo sapiens) [hAFP158-166, dominant HLA-A*0201 peptide derived from human alpha fetoprotein]	clear recognition	T cell responses were detected		0
